This note sets out measurements from patent US8716292B2, “Riminophenazines with 2-(heteroaryl)amino substituents and their anti-microbial activity” (priority 2010, dated 2014).

Converted amounts (≈) assume the structure as drawn.

For the first assay, the system named is Mycobacterium tuberculosis H37Rv strains. Briefly: In vitro assay for antimicrobial susceptibility (microplate Alamar blue MIC). The assay is classed as cell-based. The conditions noted are these: Mycobacterium tuberculosis, H37RV, 7H9, Alamar blue, inhibition ≧90%; read-out: MIC (μg/mL) against H37Rv. A general note: Resazurin is reduced to fluorescent resorufin, in cell work by metabolically active cells.
Take `FC(F)(F)Oc1ccc(-n2c3c/c(=N\C4CCOCC4)c(Nc4ncccn4)cc-3nc3ccccc32)cc1` [TBI-830, 5-(4-Trifluoromethoxyphenyl)-3-(4-tetrahydropyranyl)imino-2-(pyrimidin-2-yl)amino-3,5-dihydrophenazine]: the MIC came to 0.014 µg/mL (≈ 0.0263 µM).
The same measure, in the same setting: as for `Clc1ccc(-n2c3c/c(=N\C4CCOCC4)c(Nc4ncccn4)cc-3nc3ccccc32)cc1` [TBI-860, 5-(4-Chlorophenyl)-3-(4-tetrahydropyranyl)imino-2-(pyrimidin-2-yl)amino-3,5-dihydrophenazine], the figure is 0.029 µg/mL (≈ 0.06 µM).

The assay is the same for the next values; noted with them: Mycobacterium tuberculosis, H37RV, in vitro, Mycobacterium tuberculosis H37Rv strains; read-out: MIC (μg/mL) against H37Rv.
In the case of `COc1ncccc1Nc1cc2nc3ccccc3n(-c3ccc(C(F)(F)F)cc3)c-2c/c1=N\C1CCC1` [TBI-728, 5-(4-Trifluoromethylphenyl)-3-cyclobutylimino-2-(2-methoxy-3-pyridyl)amino-3,5-dihydrophenazine], the MIC worked out at 0.033 µg/mL (≈ 0.064 µM).
Same read-out and setting: for `Cc1ncccc1Nc1cc2nc3ccccc3n(-c3ccc(C(F)(F)F)cc3)c-2c/c1=N\C1CC1` [TBI-729] the value was 0.186 µg/mL (≈ 0.383 µM); for `CC(C)/N=c1\cc2n(-c3cccc(C(F)(F)F)c3)c3ccccc3nc-2cc1Nc1cccnc1` [TBI-730, 5-(3-Trifluoromethylphenyl)-3-(1-methylethyl)imino-2-(3-pyridyl)amino-3,5-dihydrophenazine], 0.205 µg/mL (≈ 0.433 µM).
In the case of `COc1ccc(Nc2cc3nc4ccccc4n(-c4ccc(C(F)(F)F)cc4)c-3c/c2=N\C(C)C)cn1` [TBI-731], the MIC is 0.348 µg/mL (≈ 0.691 µM).
Regarding `COc1ccc(Nc2cc3nc4ccccc4n(-c4ccc(C(F)(F)F)cc4)c-3c/c2=N\C2CCCCC2)cn1` [TBI-732], the MIC was determined as 0.113 µg/mL (≈ 0.208 µM).
Take `COc1ccc(Nc2cc3nc4ccccc4n(-c4ccc(C(F)(F)F)cc4)c-3c/c2=N\C2CCOCC2)cn1` [TBI-733, 5-(4-Trifluoromethylphenyl)-3-(4-tetrahydropyranyl)imino-2-(6-methoxy-3-pyridyl)amino-3,5-dihydrophenazine]: the MIC was found to be 0.111 µg/mL (≈ 0.203 µM).
The same measure, in the same setting: for `Cc1ncccc1Nc1cc2nc3ccccc3n(-c3ccc(C(F)(F)F)cc3)c-2c/c1=N\C1CCC1` [TBI-734, 5-(4-Trifluoromethylphenyl)-3-cyclobutylimino-2-(2-methyl-3-pyridyl)amino-3,5-dihydrophenazine] the value was 0.014 µg/mL (≈ 0.028 µM).
Take `COc1ccc(Nc2cc3nc4ccccc4n(-c4ccc(C(F)(F)F)cc4)c-3c/c2=N\C2CCC(OC)CC2)cn1` (stereo not shown) [TBI-735, 5-(4-Trifluoromethylphenyl)-3-(4-methoxycyclohexyl)imino-2-(6-methoxy-3-pyridyl)amino-3,5-dihydrophenazine]: the MIC is 0.186 µg/mL (≈ 0.324 µM).
Regarding `COc1ccc(Nc2cc3nc4ccccc4n(-c4ccc(C(F)(F)F)cc4)c-3c/c2=N\C2CC2)cn1` [TBI-736, 5-(4-Trifluoromethylphenyl)-3-cyclopropylimino-2-(6-methoxy-3-pyridyl)amino-3,5-dihydrophenazine], the MIC turned out to be 0.224 µg/mL (≈ 0.447 µM).
`COc1ccc(Nc2cc3nc4ccccc4n(-c4ccc(C(F)(F)F)cc4)c-3c/c2=N\C2CCC2)cn1` [TBI-737, 5-(4-Trifluoromethylphenyl)-3-cyclobutylimino-2-(6-methoxy-3-pyridyl)amino-3,5-dihydrophenazine]: the MIC came out at 0.119 µg/mL (≈ 0.231 µM).
In the case of `Cc1ccc(Nc2cc3nc4ccccc4n(-c4ccc(C(F)(F)F)cc4)c-3c/c2=N\C2CCC2)cn1` [TBI-738, 5-(4-Trifluoromethylphenyl)-3-cyclobutylimino-2-(6-methyl-3-pyridyl)amino-3,5-dihydrophenazine], the MIC came out at 0.029 µg/mL (≈ 0.0581 µM).
The same measure, in the same setting: for `COC1CCC(/N=c2\cc3n(-c4ccccc4C(F)(F)F)c4ccccc4nc-3cc2Nc2cccnc2)CC1` (stereo not shown) [TBI-739] the value was 0.239 µg/mL (≈ 0.44 µM); for `COCC(C/N=c1\cc2n(-c3ccc(C(F)(F)F)cc3)c3ccccc3nc-2cc1Nc1cccnc1OC)OC` (stereo not shown) [TBI-744], 0.059 µg/mL (≈ 0.105 µM); for `CC(C)/N=c1\cc2n(-c3cccc(Cl)c3)c3ccccc3nc-2cc1Nc1cccnc1` [TBI-810, 5-(3-Chlorophenyl)-3-(1-methylethyl)imino-2-(3-pyridyl)amino-3,5-dihydrophenazine], 0.103 µg/mL (≈ 0.234 µM).
As for `O[C@H]1CC[C@H](/N=c2\cc3n(-c4cccc(Cl)c4)c4ccccc4nc-3cc2Nc2cccnc2)CC1` [TBI-811, 5-(3-Chlorophenyl)-3-(1′,4′-trans-4-hydroxycyclohexyl)imino-2-(3-pyridyl)amino-3,5-dihydrophenazine], the MIC was found to be 0.5 µg/mL (≈ 1.01 µM).
The same measure, in the same setting: as for `Clc1cccc(-n2c3c/c(=N\C4CC4)c(Nc4cccnc4)cc-3nc3ccccc32)c1` [TBI-812, 5-(3-Chlorophenyl)-3-cyclopropylimino-2-(3-pyridyl)amino-3,5-dihydrophenazine], the figure is 0.013 µg/mL (≈ 0.0297 µM).
With `Clc1cccc(-n2c3c/c(=N\C4CCC4)c(Nc4cccnc4)cc-3nc3ccccc32)c1` [TBI-814, 5-(3-Chlorophenyl)-3-cyclobutylimino-2-(3-pyridyl)amino-3,5-dihydrophenazine], the MIC came out at 0.04 µg/mL (≈ 0.0885 µM).
For `COc1ncccc1Nc1cc2nc3ccccc3n(-c3cccc(Cl)c3)c-2c/c1=N\C1CCOCC1` [TBI-822, 5-(3-Chlorophenyl)-3-(4-tetrahydropyranyl)imino-2-(2-methoxy-3-pyridyl)amino-3,5-dihydrophenazine], the MIC was determined as 0.125 µg/mL (≈ 0.244 µM).
With `COc1ncccc1Nc1cc2nc3ccccc3n(-c3cccc(Cl)c3)c-2c/c1=N\C1CC1` [TBI-823, 5-(3-Chlorophenyl)-3-cyclopropylimino-2-(2-methoxy-3-pyridyl)amino-3,5-dihydrophenazine], the MIC was 0.03 µg/mL (≈ 0.0641 µM).
As for `COc1ncccc1Nc1cc2nc3ccccc3n(-c3cccc(Cl)c3)c-2c/c1=N\C1CCC1` [TBI-824, 5-(3-Chlorophenyl)-3-cyclobutylimino-2-(2-methoxy-3-pyridyl)amino-3,5-dihydrophenazine], the MIC is 0.06 µg/mL (≈ 0.124 µM).
As for `COCC(COC)/N=c1\cc2n(-c3cccc(Cl)c3)c3ccccc3nc-2cc1Nc1cccnc1OC` [TBI-825, 5-(3-Chlorophenyl)-3-(1,3-dimethoxyisopropyl)imino-2-(2-methoxy-3-pyridyl)amino-3,5-dihydrophenazine], the MIC stood at 0.125 µg/mL (≈ 0.236 µM).
In the case of `COCC(C/N=c1\cc2n(-c3cccc(Cl)c3)c3ccccc3nc-2cc1Nc1cccnc1OC)OC` (stereo not shown) [TBI-826, 5-(3-Chlorophenyl)-3-(2,3-dimethoxy-1-propyl)imino-2-(2-methoxy-3-pyridyl)amino-3,5-dihydrophenazine], the MIC came out at 0.125 µg/mL (≈ 0.236 µM).
Still for that read-out and setting: for `COC1CCC(/N=c2\cc3n(-c4ccc(OC(F)(F)F)cc4)c4cc(F)ccc4nc-3cc2Nc2ccc(C)nc2)CC1` (stereo not shown) [TBI-852, 7-Fluoro-5-(4-trifluoromethoxyphenyl)-3-(4-methoxycyclohexyl)imino-2-(6-methyl-3-pyridyl)amino-3,5-dihydrophenazine] the value was 0.024 µg/mL (≈ 0.0406 µM); for `Cc1ccc(Nc2cc3nc4ccc(F)cc4n(-c4ccc(OC(F)(F)F)cc4)c-3c/c2=N\C2CCCCC2)cn1` [TBI-853, 7-Fluoro-5-(4-trifluoromethoxyphenyl)-3-cyclohexylimino-2-(6-methyl-3-pyridyl)amino-3,5-dihydrophenazine], 0.025 µg/mL (≈ 0.0445 µM).
`Cc1ccc(Nc2cc3nc4ccc(F)cc4n(-c4ccc(OC(F)(F)F)cc4)c-3c/c2=N\C(C)C)cn1` [TBI-854, 7-Fluoro-5-(4-trifluoromethoxyphenyl)-3-(1-methylethyl)imino-2-(6-methyl-3-pyridyl)amino-3,5-dihydrophenazine]: the MIC is 0.067 µg/mL (≈ 0.128 µM).
For `COc1ncccc1Nc1cc2nc3ccc(F)cc3n(-c3ccc(OC(F)(F)F)cc3)c-2c/c1=N\C1CCOCC1` [TBI-855], the MIC is 0.193 µg/mL (≈ 0.333 µM).
On to `COc1ncccc1Nc1cc2nc3ccc(F)cc3n(-c3ccc(OC(F)(F)F)cc3)c-2c/c1=N\C1CCCCC1` [TBI-856, 7-Fluoro-5-(4-trifluoromethoxyphenyl)-3-cyclohexylimino-2-(2-methoxy-3-pyridyl)amino-3,5-dihydrophenazine], for which the MIC came out at 0.029 µg/mL (≈ 0.0502 µM).
For the compound `COc1ncccc1Nc1cc2nc3ccc(F)cc3n(-c3ccc(OC(F)(F)F)cc3)c-2c/c1=N\C1CC1` [TBI-857], the MIC was found to be 0.045 µg/mL (≈ 0.084 µM).
With `COc1ncccc1Nc1cc2nc3ccc(F)cc3n(-c3ccc(OC(F)(F)F)cc3)c-2c/c1=N\C(C)C` [TBI-858, 7-Fluoro-5-(4-trifluoromethoxyphenyl)-3-(1-methylethyl)imino-2-(2-methoxy-3-pyridyl)amino-3,5-dihydrophenazine], the MIC amounted to 0.08 µg/mL (≈ 0.149 µM).
`COc1ncccc1Nc1cc2nc3cc(F)ccc3n(-c3ccc(Cl)cc3)c-2c/c1=N\C1CC1` [TBI-859, 8-Fluoro-5-(4-chlorophenyl)-3-cyclopropylimino-2-(2-methoxy-3-pyridyl)amino-3,5-dihydrophenazine]: the MIC stood at 0.015 µg/mL (≈ 0.0309 µM).
In the case of `COc1ncccc1Nc1cc2nc3cc(F)ccc3n(-c3ccc(OC(F)(F)F)cc3)c-2c/c1=N\C1CCC(OC)CC1` (stereo not shown) [TBI-861, 8-Fluoro-5-(4-trifluoromethoxyphenyl)-3-(4-methoxycyclohexyl)imino-2-(2-methoxy-3-pyridyl)amino-3,5-dihydrophenazine], the MIC is 0.058 µg/mL (≈ 0.0955 µM).
For the compound `COc1ncccc1Nc1cc2nc3cc(F)ccc3n(-c3ccc(OC(F)(F)F)cc3)c-2c/c1=N\C1CCCCC1` [TBI-862, 8-Fluoro-5-(4-trifluoromethoxyphenyl)-3-cyclohexylimino-2-(2-methoxy-3-pyridyl)amino-3,5-dihydrophenazine], the MIC came to 0.088 µg/mL (≈ 0.152 µM).
For `Cc1ccc(Nc2cc3nc4cc(F)ccc4n(-c4ccc(OC(F)(F)F)cc4)c-3c/c2=N\C(C)C)cn1` [TBI-863, 8-Fluoro-5-(4-trifluoromethoxyphenyl)-3-(1-methylethyl)imino-2-(6-methyl-3-pyridyl)amino-3,5-dihydrophenazine], the MIC is 0.061 µg/mL (≈ 0.117 µM).
On the same count and under the same terms, for `Cc1ccc(Nc2cc3nc4cc(F)ccc4n(-c4ccc(OC(F)(F)F)cc4)c-3c/c2=N\C2CC2)cn1` [TBI-864, 8-Fluoro-5-(4-trifluoromethoxyphenyl)-3-cyclopropylimino-2-(6-methyl-3-pyridyl)amino-3,5-dihydrophenazine] the value was 0.057 µg/mL (≈ 0.11 µM).

The same assay, now with this note: in vitro, Mycobacterium tuberculosis H37Rv strains.
Regarding `COc1ncccc1Nc1cc2nc3ccc(F)cc3n(-c3ccc(Cl)cc3)c-2c/c1=N\C(C)C` [TBI-741, 5-(4-Chlorophenyl)-3-(1-methylethyl)imino-2-(2-methoxy-3-pyridyl)amino-7-fluoro-3,5-dihydrophenazine], the “MIC (μg/mL) against H37Rv” value was 0.035 µg/mL (≈ 0.0717 µM).
